Assay results taken from PubChem BioAssay (NCI).
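Test compounds were applied to cells in 96-well plates for 48 hours at 5 doses. Abbreviation: GI50, concentration required for 50% inhibition of growth. TGI: total growth inhibition.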

Columns and labels:
Assay in all cases: NCI anticancer screen, dose series, 48 h
786-0 renal = system: 786-0 renal
A498 renal = system: A498 renal
A549 NSCLC = system: A549 NSCLC
ACHN renal = system: ACHN renal
BT-549 breast = system: BT-549 breast
CAKI-1 renal = system: CAKI-1 renal
CCRF-CEM leukemia = system: CCRF-CEM leukemia
COLO 205 colon = system: COLO 205 colon
DU-145 prostate = system: DU-145 prostate
HCC-2998 colon = system: HCC-2998 colon
HCT-116 colon = system: HCT-116 colon
HCT-15 colon = system: HCT-15 colon
HL-60(TB) leukemia = system: HL-60(TB) leukemia
HOP-62 NSCLC = system: HOP-62 NSCLC
HOP-92 NSCLC = system: HOP-92 NSCLC
HS 578T breast = system: HS 578T breast
HT29 colon = system: HT29 colon
IGROV1 ovarian = system: IGROV1 ovarian
K-562 leukemia = system: K-562 leukemia
KM12 colon = system: KM12 colon
M14 melanoma = system: M14 melanoma
MALME-3M melanoma = system: MALME-3M melanoma
MCF7 breast = system: MCF7 breast
MDA-MB-231 breast = system: MDA-MB-231 breast
MDA-MB-435 = system: MDA-MB-435
MOLT-4 leukemia = system: MOLT-4 leukemia
NCI-H226 lung = system: NCI-H226 lung
NCI-H23 lung = system: NCI-H23 lung
NCI-H460 lung = system: NCI-H460 lung
NCI-H522 lung = system: NCI-H522 lung
NCI/ADR-RES ovarian = system: NCI/ADR-RES ovarian
OVCAR-3 ovarian = system: OVCAR-3 ovarian
OVCAR-4 ovarian = system: OVCAR-4 ovarian
OVCAR-5 ovarian = system: OVCAR-5 ovarian
OVCAR-8 ovarian = system: OVCAR-8 ovarian
PC-3 prostate = system: PC-3 prostate
RPMI-8226 leukemia = system: RPMI-8226 leukemia
RXF 393 renal = system: RXF 393 renal
SF-268 CNS = system: SF-268 CNS
SF-295 CNS = system: SF-295 CNS
SF-539 CNS = system: SF-539 CNS
SK-MEL-2 melanoma = system: SK-MEL-2 melanoma
SK-MEL-28 melanoma = system: SK-MEL-28 melanoma
SK-MEL-5 melanoma = system: SK-MEL-5 melanoma
SK-OV-3 ovarian = system: SK-OV-3 ovarian
SN12C renal = system: SN12C renal
SNB-19 CNS = system: SNB-19 CNS
SNB-75 CNS = system: SNB-75 CNS
SR leukemia = system: SR leukemia
SW-620 colon = system: SW-620 colon
T-47D breast = system: T-47D breast
TK-10 renal = system: TK-10 renal
U251 CNS = system: U251 CNS
UACC-257 melanoma = system: UACC-257 melanoma
UACC-62 melanoma = system: UACC-62 melanoma
UO-31 renal = system: UO-31 renal

For O=C1Nc2ccccc2/C1=C\c1c[nH]c2ccc(Br)cc12, the GI50 (786-0 renal) was 3.82 µM, the TGI (786-0 renal) was 14.7 µM and the GI50 (A498 renal) was 1.88 µM. The TGI (A498 renal) was 6.31 µM, the GI50 (A549 NSCLC) was 2.26 µM and the TGI (A549 NSCLC) was 6.23 µM. The GI50 (ACHN renal) was 2.82 µM, the TGI (ACHN renal) was 10.1 µM and the GI50 (BT-549 breast) was 4.26 µM. It also gave a TGI (BT-549 breast) of 19.5 µM, a GI50 (CAKI-1 renal) of 2.67 µM and a TGI (CAKI-1 renal) of 13.6 µM. For the same compound, the GI50 (CCRF-CEM leukemia) was 3.18 µM, the TGI (CCRF-CEM leukemia) was 10.5 µM and the GI50 (COLO 205 colon) was 1.77 µM. The TGI (COLO 205 colon) was 3.23 µM, the GI50 (DU-145 prostate) was 3.23 µM and the TGI (DU-145 prostate) was 11 µM. The GI50 (HCC-2998 colon) was 1.86 µM, the TGI (HCC-2998 colon) was 3.45 µM and the GI50 (HCT-116 colon) was 1.61 µM. The TGI (HCT-116 colon) was 3.11 µM, the GI50 (HCT-15 colon) was 2.12 µM and the TGI (HCT-15 colon) was 5.59 µM. The GI50 (HL-60(TB) leukemia) was 2.79 µM, the TGI (HL-60(TB) leukemia) was 7.88 µM and the GI50 (HOP-62 NSCLC) was 3.5 µM. For the same compound, the TGI (HOP-62 NSCLC) was 13.3 µM, the GI50 (HOP-92 NSCLC) was 0.573 µM and the TGI (HOP-92 NSCLC) was 3.3 µM. It also gave a GI50 (HS 578T breast) of 2.2 µM, a TGI (HS 578T breast) of 8.33 µM and a GI50 (HT29 colon) of 2.75 µM. It also gave a TGI (HT29 colon) of 6.56 µM, a GI50 (IGROV1 ovarian) of 2.57 µM and a TGI (IGROV1 ovarian) of 11.2 µM. It also gave a GI50 (K-562 leukemia) of 3.26 µM, a TGI (K-562 leukemia) of 8 µM and a GI50 (KM12 colon) of 0.633 µM. The TGI (KM12 colon) was 2.37 µM, the GI50 (M14 melanoma) was 1.67 µM and the TGI (M14 melanoma) was 3.68 µM. It also gave a GI50 (MALME-3M melanoma) of 5.55 µM, a TGI (MALME-3M melanoma) of 25.1 µM and a GI50 (MCF7 breast) of 2.43 µM. For the same compound, the TGI (MCF7 breast) was 11.2 µM, the GI50 (MDA-MB-231 breast) was 1.63 µM and the TGI (MDA-MB-231 breast) was 3.24 µM. It also gave a GI50 (MDA-MB-435) of 2.44 µM, a TGI (MDA-MB-435) of 6.89 µM and a GI50 (MOLT-4 leukemia) of 2.76 µM. For the same compound, the TGI (MOLT-4 leukemia) was 8.6 µM, the GI50 (NCI-H226 lung) was 6.23 µM and the TGI (NCI-H226 lung) was 41.9 µM. The GI50 (NCI-H23 lung) was 1.92 µM, the TGI (NCI-H23 lung) was 5.61 µM and the GI50 (NCI-H460 lung) was 2.11 µM. It also gave a TGI (NCI-H460 lung) of 4.98 µM, a GI50 (NCI-H522 lung) of 1.83 µM and a TGI (NCI-H522 lung) of 3.77 µM. It also gave a GI50 (NCI/ADR-RES ovarian) of 2.49 µM, a TGI (NCI/ADR-RES ovarian) of 7.04 µM and a GI50 (OVCAR-3 ovarian) of 2.29 µM. It also gave a TGI (OVCAR-3 ovarian) of 5.58 µM, a GI50 (OVCAR-4 ovarian) of 2.7 µM and a TGI (OVCAR-4 ovarian) of 22.5 µM. For the same compound, the GI50 (OVCAR-5 ovarian) was 2.26 µM, the TGI (OVCAR-5 ovarian) was 5.86 µM and the GI50 (OVCAR-8 ovarian) was 2.85 µM. The TGI (OVCAR-8 ovarian) was 10.4 µM, the GI50 (PC-3 prostate) was 2.42 µM and the TGI (PC-3 prostate) was 10.3 µM. The GI50 (RPMI-8226 leukemia) was 2.32 µM, the TGI (RPMI-8226 leukemia) was 7.93 µM and the GI50 (RXF 393 renal) was 3.01 µM. It also gave a TGI (RXF 393 renal) of 8.72 µM, a GI50 (SF-268 CNS) of 3.3 µM and a TGI (SF-268 CNS) of 16.2 µM. For the same compound, the GI50 (SF-295 CNS) was 3.99 µM, the TGI (SF-295 CNS) was 21.6 µM and the GI50 (SF-539 CNS) was 4.77 µM. For the same compound, the TGI (SF-539 CNS) was 17.1 µM, the GI50 (SK-MEL-2 melanoma) was 1.99 µM and the TGI (SK-MEL-2 melanoma) was 4.41 µM. The GI50 (SK-MEL-28 melanoma) was 4.16 µM, the TGI (SK-MEL-28 melanoma) was 20.9 µM and the GI50 (SK-MEL-5 melanoma) was 4.41 µM. The TGI (SK-MEL-5 melanoma) was 17.2 µM, the GI50 (SK-OV-3 ovarian) was 3.63 µM and the TGI (SK-OV-3 ovarian) was 15 µM. For the same compound, the GI50 (SN12C renal) was 2.63 µM, the TGI (SN12C renal) was 7.6 µM and the GI50 (SNB-19 CNS) was 3.71 µM. For the same compound, the TGI (SNB-19 CNS) was 25.5 µM, the GI50 (SNB-75 CNS) was 2.68 µM and the TGI (SNB-75 CNS) was 9.37 µM. It also gave a GI50 (SR leukemia) of 2.59 µM, a TGI (SR leukemia) of 6.32 µM and a GI50 (SW-620 colon) of 2.89 µM. It also gave a TGI (SW-620 colon) of 10.7 µM, a GI50 (T-47D breast) of 3.65 µM and a TGI (T-47D breast) of 30.3 µM. It also gave a GI50 (TK-10 renal) of 3.99 µM, a TGI (TK-10 renal) of 9.5 µM and a GI50 (U251 CNS) of 2.39 µM. For the same compound, the TGI (U251 CNS) was 7.09 µM, the GI50 (UACC-257 melanoma) was 2.91 µM and the TGI (UACC-257 melanoma) was 14.5 µM. The GI50 (UACC-62 melanoma) was 1.71 µM, the TGI (UACC-62 melanoma) was 3.72 µM and the GI50 (UO-31 renal) was 2.22 µM. The TGI (UO-31 renal) was 8.79 µM.
